Laboratory results taken from PubChem BioAssay (NCI).
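How tested: cells in 96-well plates exposed to compound for 48 hours at five concentrations. TGI: concentration producing complete growth inhibition.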

test system: SK-OV-3 ovarian; experiment: DTP human tumour cell line panel, 48 h

| SMILES | TGI [µM] |
| --- | --- |
| O=C1C(Cl)N(c2ccccc2)C1c1c[nH]c2ccccc12 (centres undefined) | > 100 |
| COc1cc2c(NCCCCCCO[N+](=O)[O-])ncnc2c(OC)c1OC | > 100 |
| O=C(O)c1cc(S(=O)(=O)N=NC=C2c3ccccc3N(O)c3ccccc32)ccc1O | 92.2 |
| CC(=O)OCC1OC(n2c(=S)[nH]c(-c3ccccc3)c(C#N)c2=O)C(OC(C)=O)C(OC(C)=O)C1OC(C)=O (centres undefined) | > 100 |
| CCOC(=O)c1c(SCCN2CCCC2)n(-c2ccccc2)c(=S)n(-c2ccccc2)c1=O | 34.5 |
| COC(=O)CCCC(=O)C(=Nc1c(Cl)cccc1Cl)NNc1ccc(Cl)cc1 | > 100 |
| O=[N+]([O-])C(=C(Sc1ccccc1)Sc1ccccc1)C(Cl)=C(Cl)Cl | 24.6 |

test system: SK-MEL-2 melanoma; experiment: DTP human tumour cell line panel, 48 h

| SMILES | TGI [µM] |
| --- | --- |
| O=C1C(Cl)N(c2ccccc2)C1c1c[nH]c2ccccc12 (centres undefined) | > 100 |
| COc1cc2c(NCCCCCCO[N+](=O)[O-])ncnc2c(OC)c1OC | 53.9 |
| O=C(O)c1cc(S(=O)(=O)N=NC=C2c3ccccc3N(O)c3ccccc32)ccc1O | 64.2 |
| CC(=O)OCC1OC(n2c(=S)[nH]c(-c3ccccc3)c(C#N)c2=O)C(OC(C)=O)C(OC(C)=O)C1OC(C)=O (centres undefined) | > 100 |
| CCOC(=O)c1c(SCCN2CCCC2)n(-c2ccccc2)c(=S)n(-c2ccccc2)c1=O | 28.4 |
| COC(=O)CCCC(=O)C(=Nc1c(Cl)cccc1Cl)NNc1ccc(Cl)cc1 | > 80.3 |
| O=[N+]([O-])C(=C(Sc1ccccc1)Sc1ccccc1)C(Cl)=C(Cl)Cl | 5.86 |

test system: ACHN renal; experiment: DTP human tumour cell line panel, 48 h

| SMILES | TGI [µM] |
| --- | --- |
| COc1cc2c(NCCCCCCO[N+](=O)[O-])ncnc2c(OC)c1OC | > 100 |
| O=C(O)c1cc(S(=O)(=O)N=NC=C2c3ccccc3N(O)c3ccccc32)ccc1O | 59.6 |
| CC(=O)OCC1OC(n2c(=S)[nH]c(-c3ccccc3)c(C#N)c2=O)C(OC(C)=O)C(OC(C)=O)C1OC(C)=O (centres undefined) | > 100 |
| CCOC(=O)c1c(SCCN2CCCC2)n(-c2ccccc2)c(=S)n(-c2ccccc2)c1=O | 3.17 |
| COC(=O)CCCC(=O)C(=Nc1c(Cl)cccc1Cl)NNc1ccc(Cl)cc1 | > 100 |
| O=[N+]([O-])C(=C(Sc1ccccc1)Sc1ccccc1)C(Cl)=C(Cl)Cl | 0.895 |

test system: HCT-116 colon; experiment: DTP human tumour cell line panel, 48 h

| SMILES | TGI [µM] |
| --- | --- |
| O=C1C(Cl)N(c2ccccc2)C1c1c[nH]c2ccccc12 (centres undefined) | > 100 |
| COc1cc2c(NCCCCCCO[N+](=O)[O-])ncnc2c(OC)c1OC | 62.5 |
| O=C(O)c1cc(S(=O)(=O)N=NC=C2c3ccccc3N(O)c3ccccc32)ccc1O | 27.9 |
| CC(=O)OCC1OC(n2c(=S)[nH]c(-c3ccccc3)c(C#N)c2=O)C(OC(C)=O)C(OC(C)=O)C1OC(C)=O (centres undefined) | > 100 |
| CCOC(=O)c1c(SCCN2CCCC2)n(-c2ccccc2)c(=S)n(-c2ccccc2)c1=O | 8.39 |
| COC(=O)CCCC(=O)C(=Nc1c(Cl)cccc1Cl)NNc1ccc(Cl)cc1 | > 100 |
| O=[N+]([O-])C(=C(Sc1ccccc1)Sc1ccccc1)C(Cl)=C(Cl)Cl | 0.125 |

test system: RXF 393 renal; experiment: DTP human tumour cell line panel, 48 h

| SMILES | TGI [µM] |
| --- | --- |
| O=C1C(Cl)N(c2ccccc2)C1c1c[nH]c2ccccc12 (centres undefined) | > 100 |
| COc1cc2c(NCCCCCCO[N+](=O)[O-])ncnc2c(OC)c1OC | 75.2 |
| CC(=O)OCC1OC(n2c(=S)[nH]c(-c3ccccc3)c(C#N)c2=O)C(OC(C)=O)C(OC(C)=O)C1OC(C)=O (centres undefined) | > 100 |
| CCOC(=O)c1c(SCCN2CCCC2)n(-c2ccccc2)c(=S)n(-c2ccccc2)c1=O | 3.36 |
| COC(=O)CCCC(=O)C(=Nc1c(Cl)cccc1Cl)NNc1ccc(Cl)cc1 | > 68.2 |
| O=[N+]([O-])C(=C(Sc1ccccc1)Sc1ccccc1)C(Cl)=C(Cl)Cl | 1.99 |

test system: NCI-H226 lung; experiment: DTP human tumour cell line panel, 48 h

| SMILES | TGI [µM] |
| --- | --- |
| COc1cc2c(NCCCCCCO[N+](=O)[O-])ncnc2c(OC)c1OC | 45.5 |
| O=C(O)c1cc(S(=O)(=O)N=NC=C2c3ccccc3N(O)c3ccccc32)ccc1O | 72.4 |
| CC(=O)OCC1OC(n2c(=S)[nH]c(-c3ccccc3)c(C#N)c2=O)C(OC(C)=O)C(OC(C)=O)C1OC(C)=O (centres undefined) | > 100 |
| CCOC(=O)c1c(SCCN2CCCC2)n(-c2ccccc2)c(=S)n(-c2ccccc2)c1=O | 33.9 |
| COC(=O)CCCC(=O)C(=Nc1c(Cl)cccc1Cl)NNc1ccc(Cl)cc1 | > 100 |
| O=[N+]([O-])C(=C(Sc1ccccc1)Sc1ccccc1)C(Cl)=C(Cl)Cl | 1.31 |

test system: NCI/ADR-RES ovarian; experiment: DTP human tumour cell line panel, 48 h

| SMILES | TGI [µM] |
| --- | --- |
| COc1cc2c(NCCCCCCO[N+](=O)[O-])ncnc2c(OC)c1OC | 51.3 |
| CC(=O)OCC1OC(n2c(=S)[nH]c(-c3ccccc3)c(C#N)c2=O)C(OC(C)=O)C(OC(C)=O)C1OC(C)=O (centres undefined) | > 100 |
| CCOC(=O)c1c(SCCN2CCCC2)n(-c2ccccc2)c(=S)n(-c2ccccc2)c1=O | > 92 |
| COC(=O)CCCC(=O)C(=Nc1c(Cl)cccc1Cl)NNc1ccc(Cl)cc1 | > 100 |
| O=[N+]([O-])C(=C(Sc1ccccc1)Sc1ccccc1)C(Cl)=C(Cl)Cl | 1.9 |

test system: LXFL 529 NSCLC; experiment: DTP human tumour cell line panel, 48 h

| SMILES | TGI [µM] |
| --- | --- |
| O=C1C(Cl)N(c2ccccc2)C1c1c[nH]c2ccccc12 (centres undefined) | > 100 |
| O=C(O)c1cc(S(=O)(=O)N=NC=C2c3ccccc3N(O)c3ccccc32)ccc1O | 28.6 |

test system: PC-3 prostate; experiment: DTP human tumour cell line panel, 48 h

| SMILES | TGI [µM] |
| --- | --- |
| COc1cc2c(NCCCCCCO[N+](=O)[O-])ncnc2c(OC)c1OC | 63.4 |
| CC(=O)OCC1OC(n2c(=S)[nH]c(-c3ccccc3)c(C#N)c2=O)C(OC(C)=O)C(OC(C)=O)C1OC(C)=O (centres undefined) | > 100 |
| CCOC(=O)c1c(SCCN2CCCC2)n(-c2ccccc2)c(=S)n(-c2ccccc2)c1=O | 3.14 |
